Assay results: patent US4370459A, “Polymerizing unsaturated monomers with gem-diperoxyester catalyst” (priority 1980, dated 1983)

Assays:
[1] = Half-lives of gem-diperoxyesters (10 hour half-life temperature); assay type: physicochemical; settings: 0.2M in benzene
Text: HALF-LIFES OF VARIOUS GEM-DIPEROXYESTERS

[2] = Suspension polymerization of vinyl chloride monomer in pop bottles with gem-diperoxyester initiators
Experimental: A series of polymerizations was performed to illustrate the improved efficiencies of the new compounds as initiators of vinyl chloride monomer. 2,2-Bis(2-ethyl hexanoylperoxy)butane (KP-A) is one compound that can be made by the procedures of the above referenced Japanese patents and was included as typical of the prior art.
The data in Table III were obtained in the following manner:
The suspension polymerizations were performed in pop bottles using uninhibited monomer. Duplicate bottles were analyzed at each polymerization time interval. The following table lists some general information about the polymerization procedure used.
After the desired amounts of reactants were added to the pop bottles, they were capped, the contents almost melted, and the bottles placed in a rotating constant temperature bath at the temperatures and for the times shown in Table III. The bottles were frozen before venting-off excess monomer. The polymer was filtered, washed, and dried. All initiator concentrations shown have been corrected for purity.

[3] = Hot block gel tests with polyester resin (curing); settings: 0.75 % Wt used
Experimental: The unsaturated polyester resins cured by the present process comprises those polyesters described in U.S. Pat. No. 4,129,613, the disclosure thereof being incorporated by reference herein. The following Table IV is typical of the improved results obtained with the present compounds.
HOT BLOCK GEL TESTS WITH POLYESTER RESIN
USING VARIOUS GEM-DIPEROXYESTERS
Resin: USS Chemical MR-941 (Isophthalic)
Block Temp.: 180 ± 1° F. (82° C.)
Peroxide Concentration Corrected for Purity, […]

[4] = SET 1, 7 hrs. at 22° C., 0.10 % Wt. used
[5] = SET 2, 7 hrs. at 40° C., 4.01 × 10^-4 moles initiator/100g VCM
[6] = SET 3, 6 hrs. at 50° C., 2.50 × 10^-4 moles initiator/100g VCM
[7] = SET 1, block temp. 180 ± 1° F. (82° C.)
[8] = SET 2, block temp. 180 ± 1° F. (82° C.)
[9] = SET 1, 7 hrs. at 22° C., 0.20 % Wt. used
[10] = SET 4, 5.5 hrs. at 55° C., 1.25 × 10^-4 moles initiator/100g VCM
[11] = SET 4, 5.5 hrs. at 55° C., 1.75 × 10^-4 moles initiator/100g VCM
[12] = SET 5, 5 hrs. at 60° C., 1.25 × 10^-4 moles initiator/100g VCM
[13] = SET 5, 5 hrs. at 60° C., 1.75 × 10^-4 moles initiator/100g VCM
[14] = SET 3, 6 hrs. at 50° C., 1.50 × 10^-4 moles initiator/100g VCM

Compound | 10 Hour Half-Life Temperature [1] [°C] | % Conversion [2, 4] [%] | % Conversion [2, 5] [%] | % Conversion [2, 6] [%] | Peak Temp (exotherm) [3, 7] [°F.] | Peak Temp (exotherm) [3, 8] [°F.] | % Conversion [2, 9] [%] | % Conversion [2, 10] [%] | % Conversion [2, 11] [%] | % Conversion [2, 12] [%] | % Conversion [2, 13] [%] | % Conversion [2, 14] [%]
3,3-bis(neodecanoylperoxy)pentane [KP-C] | 23.3 | 27.8 | 63.1 | 38.0 | 225 |  |  |  |  |  |  | 
CC(C)(C)C1CCC(OC(=O)OOC(=O)OC2CCC(C(C)(C)C)CC2)CC1 (centres unmarked) [DBCPD, Di4-t-butyl cyclohexylperoxydicarbonate, reference compound] |  |  |  |  | 244 | 260 |  |  |  |  |  | 
CCCCC(CC)C(=O)OOC(C)(CC)OOC(=O)C(CC)CCCC (centres unmarked) [KP-A, 2,2-Bis(2-Ethyl Hexanoylperoxy)Butane, reference compound] | 43.7 |  | 45.9 | 75.85 |  | 275 | 5.0 | 53.4 | 72.1 | 67.8 | 83.2 | 
CCC(CC)(OOC(=O)C(C)(C)C)OOC(=O)C(C)(C)C [KP-B, 3,3-bis(pivaloylperoxy)pentane] | 24 | 52.2 | 90.4 | 51.8 | 221 |  |  |  |  |  |  | 
CCCCC(CC)C(=O)OOC(CC)(CC)OOC(=O)C(CC)CCCC (centres unmarked) [KP-D, 3,3-bis(2-ethylhexanoylperoxy)pentane] | 39.7 |  | 75.4 | 89.1 | 249 | 260 | 10.7 | 69.6 | 84.2 | 70.5 | 83.8 | 79.1
CCC(CC)(OOC(=O)C(C)C)OOC(=O)C(C)C [KP-E, 3,3-bis(2-methylpropionylperoxy)pentane] |  |  | 39.6 | 74.4 |  |  | 0.5 |  | 76.1 | 71.5 | 86.7 | 
CCC(CC)C(=O)OOC(CC)(CC)OOC(=O)C(CC)CC [KP-F, 3,3-Bis(2-Ethyl Butanoylperoxy)Pentane] | 40 |  | 88.3 | 92.5 |  | 271 | 4.3 | 74.1 | 85.9 | 67.8 | 81.8 | 82.5
CCCC(C)C(=O)OOC(CC)(CC)OOC(=O)C(C)CCC (centres unmarked) [KP-G, 3,3-bis(2-methylpentanoylperoxy)pentane] |  |  | 67.3 | 88.5 |  |  | 1.6 | 72.8 | 86.2 | 72.6 | 85.9 | 
CCCCC(CC)C(=O)OOC(C)(CC(C)(C)O)OOC(=O)C(CC)CCCC (centres unmarked) [KP-H, 2,2-bis(2-ethylhexanoylperoxy)-4-hydroxy-4-methylpentane] |  |  |  |  |  |  |  |  | 63.9 |  | 58.1 | 
CCC(CC)C(=O)OOC(C)(CC(C)(C)O)OOC(=O)C(CC)CC [KP-I, 2,2-bis(2-ethylbutanoylperoxy)-4-hydroxy-4-methylpentane] |  |  |  |  |  |  |  |  | 66.1 |  | 65.4 | 
